Data as given in patent publication US20250235509A1, “Formulation and Method of Preparing Glucagon-like Peptide-1 (GLP-1) for Oral Administration” (priority 2024, published 2025).
Several values for one entry are separate records, joined by “and”; a condition that tells them apart may be missing. Equal values may be shown once. Read-outs that look alike come from different tables or passages of the source. One block for each compound: values may come before it.

What was measured:
[1] = mouse, in vivo, po
Method: (§1) A quantitative ELISA assay to determine the absorption rate was also performed. The experimental mouse was sacrificed and whole body fluid collected one hour after feeding with Liraglutide. The intensity of the color was compared with that of a standard curve constructed by standard Liraglutide.
(§2) A quantitative ELISA assay was performed to determine the absorption rate, and the mice were sacrificed and whole body fluid collected one hour after feeding with Semaglutide GLP-1. […] The intensity of the color was compared with that of a standard curve constructed by standard Semaglutide GLP-1.

[2] = in vivo
Method: (§3) The concentrations of each reagent are as follows: • Liraglutide: 1.5 mM • EDTA: 5 to 10 mM • Zinc acetate: 15-100 mM Referring to FIGS. 1-7, an enzyme-linked immunosorbent assay (ELISA) was performed on the sera of mice orally administered with Liraglutide following the PSIM process.
(§4) In this assay, a mouse (at two weeks old) was gavaged with Liraglutide in contrasts to a control mouse to which no Liraglutide was administered. After two hours, serum was collected, and an ELISA assay performed.
(§5) Two hours later, serum was collected, and an ELISA assay was performed.

[3] = mouse, in vivo
Method: (§6) A mouse at two weeks old was gavaged with Liraglutide, or not treated with Liraglutide to serve as a control mouse. Two hours later, the pancreas of the mouse was collected and homogenized, and a protein extract was centrifuged. Thereafter the ELISA essay was conducted.
(§7) Experimental mice, at two weeks old, were gavaged with Semaglutide GLP-1 at 0.16 mg/mouse, and control mice received no orally administered Semaglutide GLP-1. Two hours later, the pancreas and brain were collected and homogenized, and protein extracts were subjected to an ELISA assay.

[4] = orally administered in combination with absorption enhancer such as Salcaprozate sodium (SNAC); cited from earlier work
[5] = Quantitative ELISA assay of whole body fluid to determine the absorption rate; conditions: oral; whole body fluid collected one hour after feeding; color intensity vs standard curve
Method: as §1, §2

blood glucose [6] = assay: Blood glucose in mice after oral glucose solution; assay type: in vivo, mouse; conditions: fasted four hours, 50 mg oral glucose
Method: The orally administered Liraglutide was prepared by incubating Liraglutide at 1.7 mM in 9.6 mM EDTA for two hours, followed by incubation of the mixture with 15 mM zinc acetate for twelve hours to produce a Liraglutide for oral administration. The experimental mice were orally given 0.5 mg Liraglutide, and the control mice were administered a vehicle solution for 5 days. Thereafter, experimental and control mice were fasted for four hours followed by an orally given 50 mg glucose solution. Three and a half hours later, blood glucose was determined. The control mice were given a non-Liraglutide vehicle (N=3).
The orally administered Semaglutide GLP-1 was prepared by incubating Semaglutide GLP-1 at 1.7 mM in 9.6 mM EDTA for two hours, followed by incubation of the mixture with 15 mM zinc acetate for twelve hours to produce a Semaglutide GLP-1 for oral administration. Experimental mice were orally given 0.5 mg Liraglutide, and control mice were given a vehicle solution for 5 days. Thereafter, experimental and control mice were fasted for four hours, followed by an orally given 50 mg glucose solution. Three and a half hours later blood glucose was determined. The control mice were given a non-Liraglutide vehicle (N=3).
Orally administered Tirzepatide GLP-1 was also shown to lower blood glucose levels in mice. The orally administered Tirzepatide GLP-1 was prepared in the manner discussed above. Thereafter 0.15 mg of orally administered Tirzepatide GLP-1 was fed to mice for five days. The mice were fasted for four hours, then 50 mg of a glucose solution was orally given. Three hours later, blood glucose levels were determined. In three control mice, who received no orally administered Tirzepatide GLP-1, the glucose levels in mg/dl were 93, 95, and 88, respectively. In three experimental mice that received orally administered Tirzepatide GLP-1, the glucose levels were 50, 52, and 47, respectively. […]

[7] = ELISA assay of sera/plasma of mice orally administered with PSIM-processed GLP-1 analog; conditions: serum collected two hours after gavage, mouse two weeks old, vs control mouse
Method: as §3, §4, §5

[8] = ELISA assay of pancreas and brain extracts of orally dosed mice; conditions: two hours after gavage at 0.16 mg/mouse, mice two weeks old
Method: as §6, §7

blood glucose [9] = assay: Glucose tolerance in human subject (blood glucose AUC); assay type: in vivo
Method: A human subject was orally given 10 mg Semaglutide GLP-1 prepared as described in FIG. 8 at −2 minutes. A control human subject was not administered any Semaglutide GLP-1 At time zero, 15 g glucose was orally given. Blood glucose levels were monitored every fifteen minutes thereafter for ninety minutes. The area-under-curve (AUC), which represents the quantity of glucose in the blood was then determined.

[10] = Body weight change in mice given oral GLP-1 analog; assay type: in vivo, mouse; conditions: for % Body Weight Change / Body Weight (Day 1) / Body Weight (Day 7): individual Exp. mice
Method: A quantity of orally administered Semaglutide GLP-1 was prepared as discussed in FIG. 8, and orally given to mice (Exp.) for seven days, along with control mice (Control) to which no Semaglutide GLP-1 was orally administered. Body weight was measured at the beginning and on the seventh day. The results are reflected in the following table:
In one experiment, orally administered Tirzepatide GLP-1 caused weight loss in mice. A quantity of orally administered Tirzepatide GLP-1 was prepared as discussed above, and orally given to mice (Exp.) for five days, along with control mice (Control) to which no Tirzepatide GLP-1 was orally administered. Body weight was measured at the beginning and on the fifth day.

- absorption rate [1]: seventy two
- presence of GLP-1 in orally dosed mouse vs control, all instances FIGS. 1-4 ([2]; po): increased presence of GLP-1
- presence in serum by ELISA (blue color) ([2]; mouse): existence of Liraglutide in the serum
- time at which substance appeared in the pancreas after gavage [3]: ninety
Compound: CCCCCCCCCCCCCCCC(=O)N[C@@H](CCC(=O)NCCCC[C@H](NC(=O)[C@H](C)NC(=O)[C@H](C)NC(=O)[C@H](CCC(N)=O)NC(=O)CNC(=O)[C@H](CCC(=O)O)NC(=O)[C@H](CC(C)C)NC(=O)[C@H](Cc1ccc(O)cc1)NC(=O)[C@H](CO)NC(=O)[C@H](CO)NC(=O)[C@@H](NC(=O)[C@H](CC(=O)O)NC(=O)[C@H](CO)NC(=O)[C@@H](NC(=O)[C@H](Cc1ccccc1)NC(=O)[C@@H](NC(=O)CNC(=O)[C@H](CCC(=O)O)NC(=O)[C@H](C)NC(=O)[C@@H](N)Cc1cnc[nH]1)[C@@H](C)O)[C@@H](C)O)C(C)C)C(=O)N[C@@H](CCC(=O)O)C(=O)N[C@@H](Cc1ccccc1)C(=O)N[C@H](C(=O)N[C@@H](C)C(=O)N[C@@H](Cc1c[nH]c2ccccc12)C(=O)N[C@@H](CC(C)C)C(=O)N[C@H](C(=O)N[C@@H](CCCNC(=N)N)C(=O)NCC(=O)N[C@@H](CCCNC(=N)N)C(=O)NCC(=O)O)C(C)C)[C@@H](C)CC)C(=O)O [Liraglutide]

Compound: Semaglutide
- bioavailability [4]: about 0.8%

Compound: Semaglutide [Semaglutide GLP-1]
- absorption rate [5]: approximately seventy
- blood glucose (average) (blood glucose [6]; 0.5 mg orally for 5 days, measured three and a half hours later, N=3): 45.00
- average difference in blood glucose, control mice vs treated mice (blood glucose [6]; 0.5 mg orally for 5 days, three and a half hours later): approximately 50%
- presence in serum by ELISA (blue color) [7]: existed in the experimental mouse serum
- presence in brain extract by ELISA (blue color) [8]: presence of orally administered Semaglutide GLP-1 in the pancreas and brain
- presence in pancreas extract by ELISA (blue color) [8]: presence of orally administered Semaglutide GLP-1 in the pancreas and brain
- blood glucose area-under-curve (AUC) (blood glucose [9]; 10 mg orally at -2 minutes, 15 g oral glucose at time zero, monitored ninety minutes): 232
- AUC reduction vs control subject (blood glucose [9]; 10 mg orally, 15 g oral glucose, ninety minutes): twenty six
- % Body Weight Change ([10]; Day 1 to Day 7 of oral dosing): −7% and +8%
- Body Weight (Day 1) ([10]; beginning of seven days oral dosing): 28 g (2×) and 24 g
- Body Weight (Day 7) ([10]; seventh day of oral dosing): 26 g (2×) and 28 g
- body weight outcome relative to control mice ([10]; oral dosing for seven days): reduced weight gain or weight loss relative to the control mice

Compound: Tirzepatide [Tirzepatide GLP-1]
- glucose levels (blood glucose [6]; individual mice, 0.15 mg orally for five days, three hours later): 50 mg/dL and 52 mg/dL and 47 mg/dL
- Body Weight (Day 1) ([10]; beginning of five days oral dosing): 26 g and 24 g and 28 g
- % Body Weight Change ([10]; oral dosing for five days): −18% and −4.1% and −7.1%
- Body Weight (Day 7) ([10]; oral dosing for five days, text says measured on the fifth day): 22 g and 23 g and 26 g
- body weight outcome relative to control mice ([10]; oral dosing for five days): reduced weight gain or weight loss relative to the control mice
